IC50 and Km data for eight compounds are collected here from ChEMBL document CHEMBL1250421, “Synthesis of 5-deoxy-beta-D-galactofuranosides as tools for the characterization of beta-D-galactofuranosidases” (Bioorg Med Chem, 2010).

Assay [1] in a line: Inhibition of Penicillium fellutanum exo-beta-D-galactofuranosidase by spectrophotometry.
Assay [2] deals with Penicillium fellutanum. Briefly: Activity of Penicillium fellutanum exo-beta-D-galactofuranosidase by spectrophotometry.

Structures are written as SMILES. pIC50: −log10 of the molar value.

On to `CO[C@H]1CNC(=S)N1[C@@H]1O[C@@H]([C@H](O)CO)[C@H](O)[C@H]1O`, for which, in assay [1], the pIC50 (in general, the negative decadic logarithm of the IC50, by convention in mol/L) was 4.00.

Take `O=[N+]([O-])c1ccc(O[C@@H]2O[C@@H]([C@H](O)CO)[C@H](O)[C@H]2O)cc1`: the Km (as a rule, the concentration of substrate that gives half-maximal velocity) in assay [2] came to 310 µM.

In assay [1], `O=[N+]([O-])c1ccc(S[C@@H]2O[C@@H]([C@H](O)CO)[C@H](O)[C@H]2O)cc1` showed a pIC50 of 3.22.

Consider `Nc1ccc(S[C@@H]2O[C@@H]([C@H](O)CO)[C@H](O)[C@H]2O)cc1`, for which the pIC50 in assay [1] was 4.10.

`OC[C@@H](O)[C@@H]1O[C@@H](OCc2ccccc2)[C@H](O)[C@H]1O`: the Km in assay [2] is 3700 µM.

Take `O=C1O[C@@H]([C@H](O)CO)[C@H](O)[C@H]1O`: in assay [1], the pIC50 is 4.70.

As to `CO[C@@H]1O[C@@H]([C@H](O)CO)[C@H](O)[C@H]1O`, the Km in assay [2] stood at 2600 µM.

In the case of `OC[C@@H](O)[C@@H]1O[C@@H](n2cc[nH]c2=S)[C@H](O)[C@H]1O`, the pIC50 in assay [1] is 2.98.
